Measured values published in US20220145303A1, “FRAGILE X MENTAL RETARDATION PROTEIN INTERFERING OLIGONUCLEOTIDES AND METHODS OF USING SAME” (Nogra Pharma Limited, priority 2019, published 2022).

Legend:
[1] = test system: DLD-1 cells; test: Cell death by AnnexinV/PI flow cytometry in DLD-1 cells; type: cell-based, human; conditions: 24 hours, AS 0.5 nM and 100 nM, FIGS. 3E, 3F
Method: (§1) Cells were transfected with either FMRP antisense oligonucleotide (AS)(final concentration 0.5 nM and 100 nM) or FMRP sense oligonucleotide (S)(final concentration 100 nM). After 24 hours (FIGS. 3E, 3F, 3J and 3K) or 48 hours (FIG. 3H), cells were collected, washed two times in Annexin V (AV) buffer, stained with FITC-AnnexinV (final dilution 1:100; Immunotools, Friesoythe, Germany) according to the manufacturer's instructions, and incubated with […] of propidium iodide (PI) for 30 min at 4° C. Cells were also transfected with either FMRP sense oligonucleotide or FMRP AS oligonucleotide (final concentration 100 nM) for 36 hours and analyzed for activated caspase 3 and caspase 8. As positive and negative controls, cells were treated, respectively, with staurosporin (final concentration 1 μM, Sigma-Aldrich Milan, Italy) or Q-VD-OPh (a pan-caspase inhibitor; final concentration 1 μM) (R&D Systems, Inc, Minneapolis, Minn.). Additionally, 36 hours (FIGS. 4F and 4G) or 48 hours post-transfection (FIGS. 4D and 4E), cells were pulsed with […] bromodeoxyuridine for 60 minutes, fixed in 70% cold ethanol, and stored at −20° C. for at least 3 hours. […] Fluorescence was measured using Gallios Flow Cytometer (Beckman Coulter, Life Sciences, Pasadena, Calif., USA) and analyzed using Kaluza software (Beckman Coulter). […]

[2] = test system: MLKL; test: Western blot of phospho-MLKL after FMRP antisense treatment; type: cell-based; conditions: human CRC cell lines, 24 hours, FIGS. 6A, 6D
Method: To confirm the association of FMRP with components of the necroptosis pathway, cells were left untreated or transfected with either FMRP antisense oligonucleotide (final concentration 0.5 nM and 100 nM) or FMRP sense oligonucleotide (final concentration 100 nM); incubated with a pMLKL inhibitor (necrosulfonamide, NSA; final concentration 1 μM)(Calbiochem); or a pRIPK1 inhibitor (necrostatinl, NEC1; final concentration 10 μM)(Cayman Chemical, Ann Arbor, Mich. USA). After 24 hours cells were collected and analyzed by Western blot, or stained with FITC-Annexin V and PI for flow cytometry analysis, as previously described in Examples 1-3.

[3] = test system: caspase 8; test: Activated caspase 8 by flow cytometry in CRC cells; type: cell-based, human; conditions: oligonucleotide 100 nM 36 hours, FIGS. 4A, 4B
Method: as §1

5′-TCCACCACCAGCTCCTCCAT-3′ (all phosphorothioate, sugars by position and methylation of C not given here) [FMRP antisense oligonucleotide, Phosphorothioate single-stranded antisense oligonucleotides complementary to human FMRP]
number of AnnexinV+ or AnnexinV+ PI+ cells [1]: increased number of AnnexinV^+ or AnnexinV^+ Pt cells | phosphorylation of MLKL [2]: increased phosphorylation | percentage of activated caspase 8-positive cells [3]: did not alter
